Experimental findings from ChEMBL document CHEMBL4261581, “Synthesis and evaluation of 4-cycloheptylphenols as selective Estrogen receptor-β agonists (SERBAs)” (Eur J Med Chem, 2018) are described below.

A word on the pIC50: it is the IC50 on a negative log10 scale, so that one unit is a factor of ten. A word on the pEC50: it is the negative decadic logarithm of the EC50, by convention in mol/L.

pEC50, pIC50: −log10 of the molar value. The source made the active and inactive calls. The calls are words filed in the database; no cut-off is given here. Bounds are passed on as bounds.

Assay [1] has as its target Peroxisome proliferator-activated receptor delta (Homo sapiens, UniProt Q03181). In words: (§1) Agonist activity at GAL4 DNA-binding domain fused PPARdelta receptor (unknown origin) ligand binding domain expressed in UAS-bla HEK 293T cells assessed as beta-lactamase transcriptional activation by FRET-based GeneBLAzer assay. In kind it is cell-based.
Assay [2] deals with T1, Estrogen receptor beta (Homo sapiens, UniProt Q92731). In words: Inhibition of fluorescein-tagged estrogen binding to GST-tagged ERbeta (unknown origin) ligand binding domain after 1 hr by LanthaScreen TR-FRET assay. (In general: TR-FRET usually uses a lanthanide donor and a delayed reading to cut background.)
T1 sequence (Q92731 whole entry, the tested form may be a part): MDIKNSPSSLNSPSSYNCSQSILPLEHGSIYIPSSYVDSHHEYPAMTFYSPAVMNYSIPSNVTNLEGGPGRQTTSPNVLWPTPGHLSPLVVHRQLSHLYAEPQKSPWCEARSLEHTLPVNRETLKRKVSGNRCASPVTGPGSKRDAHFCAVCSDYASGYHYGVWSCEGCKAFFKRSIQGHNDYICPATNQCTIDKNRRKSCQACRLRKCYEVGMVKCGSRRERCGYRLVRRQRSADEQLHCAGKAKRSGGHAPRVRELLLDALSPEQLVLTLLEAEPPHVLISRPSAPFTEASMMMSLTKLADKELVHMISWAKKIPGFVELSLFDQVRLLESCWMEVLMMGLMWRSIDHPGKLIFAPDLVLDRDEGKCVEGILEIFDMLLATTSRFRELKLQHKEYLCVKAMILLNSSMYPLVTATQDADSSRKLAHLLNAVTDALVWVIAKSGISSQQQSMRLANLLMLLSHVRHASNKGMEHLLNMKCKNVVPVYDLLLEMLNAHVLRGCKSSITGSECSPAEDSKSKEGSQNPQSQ
Assay [3] addresses T2, Estrogen receptor (Homo sapiens, UniProt P03372).
T2 sequence (P03372 whole entry): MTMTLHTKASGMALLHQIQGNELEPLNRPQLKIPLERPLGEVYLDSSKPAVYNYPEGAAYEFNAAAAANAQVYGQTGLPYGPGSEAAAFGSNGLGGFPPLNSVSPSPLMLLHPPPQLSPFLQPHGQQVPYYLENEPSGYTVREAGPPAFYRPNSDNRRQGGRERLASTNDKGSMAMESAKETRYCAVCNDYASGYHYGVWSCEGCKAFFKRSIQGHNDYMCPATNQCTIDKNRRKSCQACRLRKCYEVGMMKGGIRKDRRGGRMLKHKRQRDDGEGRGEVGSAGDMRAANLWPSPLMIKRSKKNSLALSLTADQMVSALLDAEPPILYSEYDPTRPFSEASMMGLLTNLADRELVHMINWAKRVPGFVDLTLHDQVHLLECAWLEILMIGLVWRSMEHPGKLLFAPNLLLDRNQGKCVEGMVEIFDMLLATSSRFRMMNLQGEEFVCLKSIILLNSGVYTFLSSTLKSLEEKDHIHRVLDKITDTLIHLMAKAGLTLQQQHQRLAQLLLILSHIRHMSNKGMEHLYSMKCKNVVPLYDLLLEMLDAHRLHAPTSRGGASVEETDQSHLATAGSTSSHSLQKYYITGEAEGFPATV
In words: Inhibition of fluorescein-tagged estrogen binding to GST-tagged ERalpha (unknown origin) ligand binding domain after 1 hr by LanthaScreen TR-FRET assay.

In assay [4] the target is T2, Estrogen receptor. Briefly: Agonist activity at full length ERalpha (unknown origin) after 24 hrs by ERE-driven luciferase reporter gene assay.
Assay [5] concerns the target T1, Estrogen receptor beta.
Description: Antagonist activity at full length ERbeta (unknown origin) assessed as reduction in E2 induced response after 24 hrs by cell based ERE-driven luciferase reporter gene assay
Assay [6] addresses T2, Estrogen receptor. Briefly: Antagonist activity at full length ERalpha (unknown origin) assessed as reduction in E2 induced response after 24 hrs by cell based ERE-driven luciferase reporter gene assay. (In general: Reporter assays use an easily measured gene product as a stand-in for the process of interest.)
The target in assay [7] is T1, Estrogen receptor beta. In words: Agonist activity at full length ERbeta (unknown origin) after 24 hrs by cell based ERE-driven luciferase reporter gene assay.
Assay [8] addresses T1, Estrogen receptor beta. In words: Agonist activity at ERbeta (unknown origin) ligand binding domain assessed as fluorescein-labeled coactivator peptide recruitment by LanthaScreen TR-FRET assay.
The target in assay [9] is Progesterone receptor (Homo sapiens) (UniProt P06401). In words: Agonist activity at GAL4 DNA-binding domain fused PR (unknown origin) ligand binding domain expressed in UAS-bla HEK 293T cells assessed as beta-lactamase transcriptional activation by FRET-based GeneBLAzer assay. The assay is classed as cell-based.
Sequence of Progesterone receptor (Homo sapiens) (P06401 whole entry, the tested form may be a part): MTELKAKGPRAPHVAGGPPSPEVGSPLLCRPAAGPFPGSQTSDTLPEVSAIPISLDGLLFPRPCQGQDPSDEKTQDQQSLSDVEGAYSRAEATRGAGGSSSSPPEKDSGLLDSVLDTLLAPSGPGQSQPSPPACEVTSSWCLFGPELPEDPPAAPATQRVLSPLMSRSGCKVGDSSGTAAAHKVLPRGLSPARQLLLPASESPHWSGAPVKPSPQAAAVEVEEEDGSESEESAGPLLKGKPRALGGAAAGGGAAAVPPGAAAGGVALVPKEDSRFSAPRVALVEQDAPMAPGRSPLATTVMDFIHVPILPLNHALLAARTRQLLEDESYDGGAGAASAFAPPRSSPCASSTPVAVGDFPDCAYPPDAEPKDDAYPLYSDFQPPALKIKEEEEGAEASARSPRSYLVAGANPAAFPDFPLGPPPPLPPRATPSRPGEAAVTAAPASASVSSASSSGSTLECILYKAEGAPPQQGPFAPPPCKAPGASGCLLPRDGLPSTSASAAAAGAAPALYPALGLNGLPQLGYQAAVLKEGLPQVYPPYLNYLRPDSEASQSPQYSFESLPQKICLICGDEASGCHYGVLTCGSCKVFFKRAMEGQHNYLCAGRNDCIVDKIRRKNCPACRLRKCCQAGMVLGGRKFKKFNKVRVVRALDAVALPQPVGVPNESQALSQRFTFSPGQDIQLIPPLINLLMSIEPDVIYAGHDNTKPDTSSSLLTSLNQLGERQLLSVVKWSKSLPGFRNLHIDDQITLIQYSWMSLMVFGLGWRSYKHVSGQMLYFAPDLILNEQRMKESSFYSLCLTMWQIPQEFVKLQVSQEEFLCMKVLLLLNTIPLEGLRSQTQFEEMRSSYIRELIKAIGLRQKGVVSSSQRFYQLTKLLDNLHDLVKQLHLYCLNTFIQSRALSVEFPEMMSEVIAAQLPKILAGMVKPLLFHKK
In assay [10] the target is Mineralocorticoid receptor (Homo sapiens) (UniProt P08235). Briefly: Agonist activity at GAL4 DNA-binding domain fused MR (unknown origin) ligand binding domain expressed in UAS-bla […] assessed as beta-lactamase transcriptional activation by FRET-based GeneBLAzer assay. The assay is classed as cell-based.
Sequence of Mineralocorticoid receptor (Homo sapiens) (P08235 whole entry, the tested form may be a part): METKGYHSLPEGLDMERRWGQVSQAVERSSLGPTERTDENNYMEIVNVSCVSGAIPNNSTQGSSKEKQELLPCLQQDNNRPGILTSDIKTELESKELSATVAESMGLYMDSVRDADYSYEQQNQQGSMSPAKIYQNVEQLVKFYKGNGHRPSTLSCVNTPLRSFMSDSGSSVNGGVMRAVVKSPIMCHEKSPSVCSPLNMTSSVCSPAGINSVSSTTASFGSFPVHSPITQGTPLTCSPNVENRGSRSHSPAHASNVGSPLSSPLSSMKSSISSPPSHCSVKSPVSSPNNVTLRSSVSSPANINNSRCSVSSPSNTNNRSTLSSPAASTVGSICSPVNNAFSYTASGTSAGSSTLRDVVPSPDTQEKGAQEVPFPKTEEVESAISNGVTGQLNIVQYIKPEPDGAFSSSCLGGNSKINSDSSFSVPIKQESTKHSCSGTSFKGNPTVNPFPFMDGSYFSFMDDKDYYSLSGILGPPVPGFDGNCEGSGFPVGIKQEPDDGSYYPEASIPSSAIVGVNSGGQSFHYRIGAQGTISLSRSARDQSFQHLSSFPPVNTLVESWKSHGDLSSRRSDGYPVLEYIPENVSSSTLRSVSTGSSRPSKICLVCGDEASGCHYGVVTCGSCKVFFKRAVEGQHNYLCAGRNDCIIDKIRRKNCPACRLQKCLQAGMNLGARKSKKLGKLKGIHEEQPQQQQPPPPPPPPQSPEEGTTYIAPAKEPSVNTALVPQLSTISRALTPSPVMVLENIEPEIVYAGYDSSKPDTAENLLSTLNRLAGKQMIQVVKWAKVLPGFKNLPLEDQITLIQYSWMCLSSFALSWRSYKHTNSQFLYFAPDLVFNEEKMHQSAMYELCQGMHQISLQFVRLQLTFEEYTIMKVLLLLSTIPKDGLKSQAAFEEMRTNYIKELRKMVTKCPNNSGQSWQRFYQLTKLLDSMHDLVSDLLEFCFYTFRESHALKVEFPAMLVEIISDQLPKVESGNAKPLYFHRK
Assay [11] addresses Peroxisome proliferator-activated receptor delta (Homo sapiens) (UniProt Q03181). Described as §1. In kind it is cell-based.
The target in assay [12] is Vitamin D3 receptor (Homo sapiens) (UniProt P11473). In words: Agonist activity at GAL4 DNA-binding domain fused VDR (unknown origin) ligand binding domain expressed in UAS-bla HEK 293T cells assessed as beta-lactamase transcriptional activation by FRET-based GeneBLAzer assay. The assay is classed as cell-based.
Sequence of Vitamin D3 receptor (Homo sapiens) (P11473 whole entry, the tested form may be a part): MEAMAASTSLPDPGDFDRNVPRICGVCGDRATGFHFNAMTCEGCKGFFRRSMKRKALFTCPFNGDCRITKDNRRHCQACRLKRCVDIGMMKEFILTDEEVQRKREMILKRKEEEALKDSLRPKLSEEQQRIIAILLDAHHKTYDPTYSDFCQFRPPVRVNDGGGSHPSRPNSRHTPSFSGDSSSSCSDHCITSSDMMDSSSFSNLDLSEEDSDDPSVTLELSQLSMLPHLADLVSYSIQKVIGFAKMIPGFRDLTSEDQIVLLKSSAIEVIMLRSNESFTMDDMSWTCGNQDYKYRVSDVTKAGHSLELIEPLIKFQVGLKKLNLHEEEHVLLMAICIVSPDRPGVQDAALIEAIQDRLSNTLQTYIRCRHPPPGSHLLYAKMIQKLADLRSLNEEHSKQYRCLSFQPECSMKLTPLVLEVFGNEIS
Assay [13] concerns the target T2, Estrogen receptor. Briefly: Agonist activity at ERalpha (unknown origin) ligand binding domain assessed as fluorescein-labeled coactivator peptide recruitment by LanthaScreen TR-FRET assay.
The species named for assay [14] is Homo sapiens. Briefly: Selectivity index, ratio of EC50 for ERalpha (unknown origin) LBD by fluorescein-labeled coactivator peptide recruitment based LanthaScreen TR-FRET assay to EC50 for ERbeta (unknown origin) LBD by fluorescein-labeled coactivator peptide recruitment based LanthaScreen TR-FRET assay.
In assay [15] the target is T1, Estrogen receptor beta. In words: Agonist activity at GAL4 DNA-binding domain fused ERbeta (unknown origin) ligand binding domain expressed in UAS-bla GripTite 293 cells assessed as beta-lactamase transcriptional activation by FRET-based GeneBLAzer assay. The assay is classed as cell-based.
For assay [16], the target named is Estrogen receptor (Homo sapiens) (UniProt P03372). In words: Agonist activity at GAL4 DNA-binding domain fused ERalpha (unknown origin) ligand binding domain expressed in UAS-bla GripTite 293 cells assessed as beta-lactamase transcriptional activation by FRET-based GeneBLAzer assay. The assay is classed as cell-based.
The species entered for assay [17] is Homo sapiens. In words: Selectivity index, ratio of IC50 for full-length human ERalpha to IC50 for full length human ERbeta.
The species entered for assay [18] is Homo sapiens. In words: Selectivity ratio for ERbeta (unknown origin) over ERalpha (unknown origin).

Sequence of Peroxisome proliferator-activated receptor delta (Homo sapiens) (Q03181 whole entry, the tested form may be a part): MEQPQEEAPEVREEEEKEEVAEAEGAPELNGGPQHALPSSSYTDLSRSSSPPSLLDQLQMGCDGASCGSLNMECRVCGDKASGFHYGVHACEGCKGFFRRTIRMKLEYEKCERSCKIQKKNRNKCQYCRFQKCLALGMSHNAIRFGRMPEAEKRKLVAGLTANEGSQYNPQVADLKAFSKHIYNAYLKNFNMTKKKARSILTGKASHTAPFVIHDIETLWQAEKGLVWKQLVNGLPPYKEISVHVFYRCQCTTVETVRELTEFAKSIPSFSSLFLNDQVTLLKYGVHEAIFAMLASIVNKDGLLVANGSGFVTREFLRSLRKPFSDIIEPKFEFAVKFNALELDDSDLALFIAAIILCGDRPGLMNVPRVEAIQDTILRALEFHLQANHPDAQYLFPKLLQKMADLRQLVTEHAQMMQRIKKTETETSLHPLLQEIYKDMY
Sequence of Peroxisome proliferator-activated receptor delta (Q03181 whole entry, the tested form may be a part): as above

Consider `CCCc1c(OCCCOc2ccc(OCC(=O)O)cc2)ccc(C(C)=O)c1O`, for which the pIC50 in assay [1] is 7.90.
Turning to `OC[C@H]1CCC[C@@H](c2ccc(O)cc2)CC1`, the pEC50 on Estrogen receptor beta [2] was 7.00; on Estrogen receptor [3], 6.66; at Estrogen receptor [4], < 5.00; on Estrogen receptor beta [5] it was < 5.00; at Estrogen receptor [6], < 5.00; at Estrogen receptor beta [7], 6.92.
As for `OC[C@@H]1CCC[C@H](c2ccc(O)cc2)CC1`, the pEC50 on Estrogen receptor beta [8] is 6.25; at Estrogen receptor beta [2], 7.18; at Estrogen receptor [3] it was 6.70; on Estrogen receptor [13], 5.58; at Estrogen receptor [4] it was < 4.94; at Estrogen receptor beta [5], < 4.94. For the same compound, the pEC50 on Estrogen receptor [6] is < 4.94; at Estrogen receptor beta [7], 7.29. The result in assay [9], in assay [10], in assay [11] and in assay [12] was inactive. In addition, the Ratio EC50 in the assay filed under Homo sapiens [14] was found to be 4.7. The outcome (at Estrogen receptor beta [15]; in [16]) was Active.
As to `C=Cc1cc(O)cc2nc(-c3ccc(O)c(F)c3)oc12`, the Ratio IC50 in the assay filed under Homo sapiens [17] is 255.
Turning to `C=Cc1cc(O)cc2nc(-c3ccc(O)cc3)oc12`, the Selectivity ratio in the assay filed under Homo sapiens [18] is 127.
Still for that read-out and setting: in the case of `N#Cc1cc(O)cc2c3c(oc12)-c1ccc(O)cc1CC3` it was 157.
As to `Oc1ccc(C2CCCC(O)CC2)cc1` (racemic), the pEC50 at Estrogen receptor beta [2] was 7.38; on Estrogen receptor [4] it was < 5.00; on Estrogen receptor beta [5], < 5.00; on Estrogen receptor [6] it was < 5.00; at Estrogen receptor beta [7], 6.44.
